# In patent US20250313604A1, “PEPTIDE PHARMACEUTICALS FOR INSULIN RESISTANCE” (Mederis Diabetes LLC, priority 2014, published 2025):
# Where two headings read alike, the source gives them in different places. Non-standard residues stand in square brackets, D forms with d. Residues, ends and D or L forms follow the SMILES beside them. *: point of attachment. GlcA(β-D,1-O-dodecyl) = CCCCCCCCCCCCO[C@@H]1O[C@H](C(=O)*)[C@@H](O)[C@H](O)[C@H]1O; αMeF = C[C@](N)(Cc1ccccc1)C(=O)O; Aib = CC(C)(N)C(=O)O
# Columns and labels:
# [1] = molecular target: T1, glucagon R (Homo sapiens, UniProt P47871); assay: Cerep cellular assay, stimulation of cAMP levels, glucagon (human, cloned into CHO cells); assay type: cell-based
# T1 construct: host or cells: CHO cells
# Method: Compounds were weighed precisely in an amount of approximately 1 mg and assayed in standard cellular assays (Cerep SA). The readout is the amount of cAMP generated in the cells treated with the test compounds, in either agonist or antagonist mode. […] The assays are described in Chicchi, G. G., et al. (1997) J Biol Chem 272:7765-7769 and Runge, S., et al. (2003) Br J Pharmacol 138:787-794.
# [2] = system: db/db mice; assay: In vivo assay in db/db mice (blood glucose, body weight, food consumption)
# [3] = Plasma protease stability; assay type: in vitro ADME; conditions: incubation at 30 degC, t=0-8 hrs, LC-MS (FIG. 8)
# Method: Standard and QC Sample Preparation: i. […] Make standard working solutions in 50% CH3CN with the stock solution. […] Spiked 10 μL of the working solutions into 90 μL blank plasma and vortex them, iv. […] Transfer the supernatant into an HPLC injection plate for loading on the HPLC column, vi.
# [4] = molecular target: T1, glucagon R; assay: DiscoveRx LeadHunter cellular assay, cAMP stimulation, glucagon receptor; assay type: cell-based; conditions: human receptor cloned into CHO cells
# Method: (§1) A further series of cellular assays were carried out using standard cellular assays (DiscoveRx, LeadHunter assays) using readout of cAMP stimulation or arrestin activation. Compounds were weighed precisely in an amount of approximately 1 mg and shipped to DiscoveRx for dilution and assay.
# [5] = molecular target: T2, GLP-1 R (Homo sapiens, UniProt P43220); assay: DiscoveRx LeadHunter cellular assay, cAMP stimulation, GLP-1 receptor; assay type: cell-based; conditions: human receptor cloned into CHO cells
# T2 construct: host or cells: CHO cells
# T2 sequence (P43220 24-463): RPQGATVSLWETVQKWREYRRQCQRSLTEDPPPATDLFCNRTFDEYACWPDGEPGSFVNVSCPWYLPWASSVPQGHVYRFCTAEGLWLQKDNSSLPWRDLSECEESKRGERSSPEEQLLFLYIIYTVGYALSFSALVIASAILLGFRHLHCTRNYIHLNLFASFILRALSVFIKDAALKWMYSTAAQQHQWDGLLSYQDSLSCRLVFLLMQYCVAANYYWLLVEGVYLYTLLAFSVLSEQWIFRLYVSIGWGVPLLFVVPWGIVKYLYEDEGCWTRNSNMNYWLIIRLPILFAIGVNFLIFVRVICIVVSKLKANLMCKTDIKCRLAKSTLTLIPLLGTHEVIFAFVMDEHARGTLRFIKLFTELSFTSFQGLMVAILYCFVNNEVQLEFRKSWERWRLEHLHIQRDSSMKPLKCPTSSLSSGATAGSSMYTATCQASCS
# Method: as §1
# T1 sequence (P47871 26-477): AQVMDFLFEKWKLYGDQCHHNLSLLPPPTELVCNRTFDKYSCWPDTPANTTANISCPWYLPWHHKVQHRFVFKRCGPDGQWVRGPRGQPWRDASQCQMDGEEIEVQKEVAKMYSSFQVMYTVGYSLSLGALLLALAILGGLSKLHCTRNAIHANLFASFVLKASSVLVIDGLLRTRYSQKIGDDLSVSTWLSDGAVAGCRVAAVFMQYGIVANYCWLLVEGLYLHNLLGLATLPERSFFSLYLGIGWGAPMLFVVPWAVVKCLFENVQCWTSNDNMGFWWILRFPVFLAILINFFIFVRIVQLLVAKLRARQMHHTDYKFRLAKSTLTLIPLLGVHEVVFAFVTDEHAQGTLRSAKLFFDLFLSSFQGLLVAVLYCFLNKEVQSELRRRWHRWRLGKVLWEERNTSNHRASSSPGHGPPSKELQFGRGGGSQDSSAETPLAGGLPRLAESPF
smiles,measurement,setting,value
"CCCCCCCCCCCCO[C@@H]1O[C@H](C(=O)NCCCC[C@H](NC(=O)C(C)(C)NC(=O)[C@H](CC(=O)O)NC(=O)[C@H](CC(C)C)NC(=O)[C@H](Cc2ccc(O)cc2)NC(=O)[C@H](CCCCN)NC(=O)[C@H](CO)NC(=O)[C@H](Cc2ccc(O)cc2)NC(=O)[C@H](CC(=O)O)NC(=O)[C@H](CO)NC(=O)[C@@H](NC(=O)[C@](C)(Cc2ccccc2)NC(=O)[C@@H](NC(=O)CNC(=O)[C@H](CCC(N)=O)NC(=O)C(C)(C)NC(=O)[C@@H](N)Cc2c[nH]cn2)[C@@H](C)O)[C@@H](C)O)C(N)=O)[C@@H](O)[C@H](O)[C@H]1O [EU-A391] (H-H[Aib]QGT[αMeF]TSDYSKYLD[Aib]K(GlcA(β-D,1-O-dodecyl))-NH2; N-terminus assumed)",GLCR cellular response,[1],does not change
"CCCCCCCCCCCCO[C@@H]1O[C@H](C(=O)NCCCC[C@H](NC(=O)[C@@H](NC(=O)[C@H](Cc2ccccc2)NC(=O)[C@H](CCC(=O)O)NC(=O)[C@@H]2CCCCNC(=O)CC[C@H](NC(=O)[C@H](CC(=O)O)NC(=O)[C@H](CC(C)C)NC(=O)[C@H](Cc3ccc(O)cc3)NC(=O)[C@H](CCCCN)NC(=O)[C@H](CO)NC(=O)[C@H](Cc3ccc(O)cc3)NC(=O)[C@H](CC(=O)O)NC(=O)[C@H](CO)NC(=O)[C@@H](NC(=O)[C@H](Cc3ccccc3)NC(=O)[C@@H](NC(=O)CNC(=O)[C@H](CCC(N)=O)NC(=O)C(C)(C)NC(=O)[C@@H](N)Cc3c[nH]cn3)[C@@H](C)O)[C@@H](C)O)C(=O)N[C@@H](CCC(N)=O)C(=O)N[C@@H](C)C(=O)N[C@@H](C)C(=O)N2)[C@@H](C)CC)C(=O)N[C@@H](Cc2c[nH]c3ccccc23)C(=O)N[C@@H](CC(C)C)C(=O)N[C@@H](CC(C)C)C(=O)N[C@@H](CCC(N)=O)C(=O)N[C@H](C(N)=O)[C@@H](C)O)[C@@H](O)[C@H](O)[C@H]1O [EU-A993, His1-Aib2-Gln3-Gly4-Thr5-Phe6-Thr7-Ser8-Asp9-Tyr10-Ser11-Lys12-Tyr13-Leu14-Asp15-Glu*16-Gln17-Ala18-Ala19-Lys*20-Glu21-Phe22-Ile23-Lys(N-omega(1-dodecylbeta-D-glucuronyl))24-Trp25-Leu26-Leu27-Gln28-Thr29-NH2]",db/db mice - Mean Blood Glucose,"[2]; 250 nmole/kg s.c., 0 hr",503 mg/dL
same,db/db mice - Mean Blood Glucose,"[2]; 250 nmole/kg s.c., 10 hr",305 mg/dL
same,db/db mice - Mean Blood Glucose,"[2]; 250 nmole/kg s.c., 24 hr",324 mg/dL
same,db/db mice - Mean Blood Glucose,"[2]; 250 nmole/kg s.c., 48 hr",426 mg/dL
same,amount of intact compound in the human plasma versus time,[3],essentially no change over 8 hrs
"CCCCCCCCCCCCO[C@@H]1O[C@H](CO[C@H]2O[C@H](C(=O)NCCCC[C@H](NC(=O)[C@@H](NC(=O)[C@H](Cc3ccccc3)NC(=O)[C@H](CCC(=O)O)NC(=O)[C@@H]3CCCCNC(=O)CC[C@H](NC(=O)[C@H](CC(=O)O)NC(=O)[C@H](CC(C)C)NC(=O)[C@H](Cc4ccc(O)cc4)NC(=O)[C@H](CCCCN)NC(=O)[C@H](CO)NC(=O)[C@H](Cc4ccc(O)cc4)NC(=O)[C@H](CC(=O)O)NC(=O)[C@H](CO)NC(=O)[C@@H](NC(=O)[C@H](Cc4ccccc4)NC(=O)[C@@H](NC(=O)CNC(=O)[C@H](CCC(N)=O)NC(=O)C(C)(C)NC(=O)[C@@H](N)Cc4c[nH]cn4)[C@@H](C)O)[C@@H](C)O)C(=O)N[C@@H](CCC(N)=O)C(=O)N[C@@H](C)C(=O)N[C@@H](C)C(=O)N3)[C@@H](C)CC)C(=O)N[C@@H](Cc3c[nH]c4ccccc34)C(=O)N[C@@H](CC(C)C)C(=O)N[C@@H](CC(C)C)C(=O)N[C@@H](CCC(N)=O)C(=O)N[C@H](C(N)=O)[C@@H](C)O)[C@H](O)[C@H](O)[C@H]2O)[C@@H](O)[C@H](O)[C@H]1O [EU-A1023, His1-Aib2-Gln3-Gly4-Thr5-Phe6-Thr7-Ser8-Asp9-Tyr10-Ser11-Lys12-Tyr13-Leu14-Asp15-Glu*16-Gln17 Ala18-Ala19-Lys*20-Glu21-Phe22-Ile23-Lys (N-omega (1-dodecyl beta-D-melibiouronyl)) 24-Trp25-Leu26-Leu27-Gln28-Thr29-NH2]",db/db mice - Mean Blood Glucose,"[2]; 50 nmole/kg s.c., 0 hr",507 mg/dL
same,db/db mice - Mean Blood Glucose,"[2]; 50 nmole/kg s.c., 10 hr",310 mg/dL
same,db/db mice - Mean Blood Glucose,"[2]; 50 nmole/kg s.c., 24 hr",355 mg/dL
same,db/db mice - Mean Blood Glucose,"[2]; 50 nmole/kg s.c., 48 hr",375 mg/dL
same,db/db mice - Mean Blood Glucose,"[2]; 250 nmole/kg s.c., 0 hr",508 mg/dL
same,db/db mice - Mean Blood Glucose,"[2]; 250 nmole/kg s.c., 10 hr",264 mg/dL
same,db/db mice - Mean Blood Glucose,"[2]; 250 nmole/kg s.c., 24 hr",194 mg/dL
same,db/db mice - Mean Blood Glucose,"[2]; 250 nmole/kg s.c., 48 hr",375 mg/dL
same,amount of intact compound in the human plasma versus time,[3],essentially no change over 8 hrs
"CCCCCCCCCCCCCCCCCCO[C@H]1O[C@H](CO[C@H]2O[C@H](C(=O)NCCCC[C@@H]3NC(=O)[C@@H](NC(=O)[C@H](CC(=O)O)NC(=O)[C@H](CC(C)C)NC(=O)[C@H](Cc4ccc(O)cc4)NC(=O)[C@H](CCCCN)NC(=O)[C@H](CO)NC(=O)[C@H](Cc4ccc(O)cc4)NC(=O)[C@H](CC(=O)O)NC(=O)[C@H](CO)NC(=O)[C@@H](NC(=O)[C@H](Cc4ccccc4)NC(=O)[C@@H](NC(=O)CNC(=O)[C@H](CCC(N)=O)NC(=O)C(C)(C)NC(=O)[C@@H](N)Cc4c[nH]cn4)[C@@H](C)O)[C@@H](C)O)CCC(=O)NCCCC[C@@H](C(=O)N[C@@H](CCC(=O)O)C(=O)N[C@@H](Cc4ccccc4)C(=O)N[C@H](C(=O)N[C@@H](CCC(N)=O)C(=O)N[C@@H](Cc4c[nH]c5ccccc45)C(=O)N[C@@H](CC(C)C)C(=O)N[C@@H](CC(C)C)C(=O)N[C@@H](CCC(N)=O)C(=O)N[C@H](C(N)=O)[C@@H](C)O)[C@@H](C)CC)NC(=O)[C@H](C)NC(=O)[C@H](C)NC3=O)[C@H](O)[C@H](O)[C@H]2O)[C@@H](O)[C@H](O)[C@H]1O [EU-A1589, His1-Aib2-Gln3-Gly4-Thr5-Phe6-Thr7-Ser8-Asp9-Tyr10-Ser11-Lys12-Tyr13-Leu14-Asp15-Glu*16Lys (N-omega (1-octadecyl alpha-D-melibiouronyl)) 17 Ala18-Ala19-Lys*20-Glu21-Phe22-Ile23-Gln24-Trp25-Leu26-Leu27-Gln28-Thr29-NH2]",EC50,[4],0.655 nM
same,EC50,[5],0.236 nM
CCCCCCCCCCCCO[C@@H]1O[C@H](CO[C@H]2O[C@H](C(=O)NCCCC[C@H](NC(=O)[C@@H](NC(=O)[C@H](Cc3ccccc3)NC(=O)[C@H](CCC(=O)O)NC(=O)[C@@H]3CCCCNC(=O)CC[C@H](NC(=O)[C@H](CC(=O)O)NC(=O)[C@H](CC(C)C)NC(=O)[C@H](Cc4ccc(O)cc4)NC(=O)[C@H](CCCCN)NC(=O)[C@H](CO)NC(=O)[C@H](Cc4ccc(O)cc4)NC(=O)[C@H](CC(=O)O)NC(=O)[C@H](CO)NC(=O)[C@@H](NC(=O)[C@H](Cc4ccccc4)NC(=O)[C@@H](NC(=O)CNC(=O)[C@H](CCC(N)=O)NC(=O)C(C)(C)NC(=O)[C@@H](N)Cc4c[nH]cn4)[C@@H](C)O)[C@@H](C)O)C(=O)N[C@@H](CCC(N)=O)C(=O)N[C@@H](C)C(=O)N[C@@H](C)C(=O)N3)[C@@H](C)CC)C(=O)N[C@@H](Cc3c[nH]c4ccccc34)C(=O)N[C@@H](CC(C)C)C(=O)N[C@@H](CC(C)C)C(=O)N[C@@H](CCC(N)=O)C(=O)N[C@H](C(=O)NCCOCCOCCOCCOCCC(=O)O)[C@@H](C)O)[C@H](O)[C@H](O)[C@H]2O)[C@@H](O)[C@H](O)[C@H]1O [EU-A1639],EC50,[4]; read-out: EC50 cAMP glucagon R,2.29 nM
same,EC50,[5],0.385 nM
CCCCCCCCCCCCO[C@@H]1O[C@H](CO[C@H]2O[C@H](C(=O)NCCCC[C@H](NC(=O)[C@@H](NC(=O)[C@H](Cc3ccccc3)NC(=O)[C@H](CCC(=O)O)NC(=O)[C@@H]3CCCCNC(=O)CC[C@H](NC(=O)[C@H](CC(=O)O)NC(=O)[C@H](CC(C)C)NC(=O)[C@H](Cc4ccc(O)cc4)NC(=O)[C@H](CCCCN)NC(=O)[C@H](CO)NC(=O)[C@H](Cc4ccc(O)cc4)NC(=O)[C@H](CC(=O)O)NC(=O)[C@H](CO)NC(=O)[C@@H](NC(=O)[C@H](Cc4ccccc4)NC(=O)[C@@H](NC(=O)CNC(=O)[C@H](CCC(N)=O)NC(=O)C(C)(C)NC(=O)[C@@H](N)Cc4c[nH]cn4)[C@@H](C)O)[C@@H](C)O)C(=O)N[C@@H](CCC(N)=O)C(=O)N[C@@H](C)C(=O)N[C@@H](C)C(=O)N3)[C@@H](C)CC)C(=O)N[C@@H](Cc3c[nH]c4ccccc34)C(=O)N[C@@H](CC(C)C)C(=O)N[C@@H](CC(C)C)C(=O)N[C@@H](CCC(N)=O)C(=O)N[C@H](C(=O)NCCOCCOCCOCCOCCOCCOCCOCCOCCC(=O)O)[C@@H](C)O)[C@H](O)[C@H](O)[C@H]2O)[C@@H](O)[C@H](O)[C@H]1O [EU-A1651],EC50,[4]; read-out: EC50 cAMP glucagon R,0.149 nM
same,EC50,[5],0.033 nM
"CC[C@H](C)[C@H](NC(=O)[C@H](Cc1ccccc1)NC(=O)[C@H](CCC(=O)O)NC(=O)[C@H](CCCCN)NC(=O)[C@H](C)NC(=O)[C@H](C)NC(=O)[C@H](CCC(N)=O)NC(=O)CNC(=O)[C@H](CCC(=O)O)NC(=O)[C@H](CC(C)C)NC(=O)[C@H](Cc1ccc(O)cc1)NC(=O)[C@H](CO)NC(=O)[C@H](CO)NC(=O)[C@@H](NC(=O)[C@H](CC(=O)O)NC(=O)[C@H](CO)NC(=O)[C@@H](NC(=O)[C@H](Cc1ccccc1)NC(=O)[C@@H](NC(=O)CNC(=O)[C@H](CCC(=O)O)NC(=O)[C@H](C)NC(=O)[C@@H](N)Cc1c[nH]cn1)[C@@H](C)O)[C@@H](C)O)C(C)C)C(=O)N[C@@H](C)C(=O)N[C@@H](Cc1c[nH]c2ccccc12)C(=O)N[C@@H](CC(C)C)C(=O)N[C@H](C(=O)N[C@@H](CCCCN)C(=O)NCC(=O)N[C@@H](CCCNC(=N)N)C(N)=O)C(C)C [GIP-1 (7-36), reference compound]",amount of intact compound in the human plasma versus time,[3],rapid decrease
